According to US20160229835A1, “NOVEL PYRIDYLOXYACETYL TETRAHYDROISOQUINOLINE COMPOUNDS USEFUL AS NAMPT INHIBITORS” (ELI LILLY AND COMPANY, priority 2013, published 2016):
pIC50: −log10 of the molar value.

Experiments:
NAMPT = NAMPT (Homo sapiens, UniProt P43490); test: NAMPT Biochemical Assay (NMN formation by LC-MS); details: relative IC50; 1.5 nM NAMPT, 2 hours at room temperature; read-out: IC50 (inhibition of NAMPT catalytic activity, NMN formation)
Experimental: The purpose of this assay is to measure the ability of a compound to inhibit NAMPT catalytic activity. Reaction mixtures (25 μL) containing 50 mM HEPES at pH 7.5, 50 mM NaCl, 1 mM DTT, 0.005% TRITON® X-100, 1.5 μM phosphoribosyl-pyrophosphate, 0.5 μM nicotinamide (NAM), 1.5 nM NAMPT, 2.5 mM ATP, 1.25 mM MgCl2, 4% (v/v) DMSO and compounds after a ten-point series dilution from either 1 μM to 50 pM or 0.1 μM to 5 pM (final) are prepared. The reaction mixtures are incubated at room temperature for 2 hours. The reaction is terminated by the addition of ACN (25 μL) containing nicotinamide mononucleotide-d4 (NMN-d4) as an internal standard (final concentration: 5 μM). […] A positive control group (enzyme and DMSO, but no compound) is used to measure minimum inhibition (0%) of NMN formation. Percent inhibition of compound treated groups is calculated relative to the minimum inhibition group. The relative IC50 for each compound is calculated from a dose response study and is the concentration necessary to achieve 50% inhibition at this time point using the above disclosed ranges of 1 μM to 50 pM (final). The data generated from the dose-response studies is fit to a four-parameter logistic equation using ACTIVITYBASE 4.0 Equation 205.

A2780 Cancer Cells = test: LC-MS Analysis of NAD+ and Carbohydrate Metabolites in A2780 Cancer Cells; type: cell-based; details: for Metabolite Levels (μM) DHAP / Metabolite Levels (μM) FBP / Metabolite Levels (μM) FP / Metabolite Levels (μM) NAD / Metabolite Levels (μM) SP: A2780 cells, 24 hours
Experimental: The purpose of this assay is to measure effects of NAMPT inhibitors on NAD^+ formation in cancer cells. LC-MS analysis of NAD^+ metabolites: nicotinamide mononucleotide (NMN), NAD^+, reduced nicotinamide adenine dinucleotide (NADH), and nicotinamide adenine dinucleotide phosphate (NADP) is performed on an HPLC system coupled to a Thermo Quantum Ultra triple quadrupole mass spectrometer operated in positive heated electrospray mode with selected reaction monitoring detection. For cell extracts, 50 μL of extract and 10 μL of 10 μM internal standard (IS) solution is transferred to a 96-well plate, dried under nitrogen and reconstituted in 50 μL of water. For tissue extracts, 20 μL of extract and 10 μL of IS solution are dried and reconstituted in 50 μL water. The IS solution contains 10 μM nicotinamide-d4 (C/D/N Isotopes), nicotinic acid-d4 (C/D/N Isotopes), nicotinamide mononucleotide-d4 (prepared by custom synthesis) and nicotinamide 1,N^6-ethenoadenine dinucleotide in methanol. The metabolites are separated on a Waters XBRIDGE™ Amide (2.1×50 mm, 3 μm) with an injection volume of 10 μL and a flow rate of 1 mL/minute using 10 mM ammonium acetate in 95% acetonitrile for mobile phase A and 10 mM ammonium acetate in 50% acetonitrile for mobile phase B. The gradient is as follows: 0 minutes, 0% B; 2.5 minutes, 70% B; 2.51 minutes, 100% B; 2.8 minutes, 100% B; 2.81 minutes, 0% B, 3.6 minutes, 0% B.
The purpose of this assay is to measure effects of NAMPT inhibitors on the levels of metabolites such as glucose-6-phosphate/fructose-6-phosphate/fructose-1-phosphate collectively as hexose phosphate (HP), fructose-1,6-bisphosphate (FBP), glyceraldehyde-3-phosphate (G3P), dihydroxyacetone phosphate (DHAP), 3-phosphoglycerate (3PG), 2-phosphoglycerate (2PG), phosphoenoylpyruvate (PEP), gluconate-6-phosphate (GN6P), xylulose-5-phosphate (X5P), ribulose-5-phosphate (Ru5P), ribose-5-phosphate (R5P), sedoheptulose-7-phosphate/sedoheptulose-1-phosphate collectively as sedoheptulose phosphate (SP), erythrose-4-phosphate (E4P), and α-ketoglutarate (α-KG) derived from glycolysis, the TCA cycle, and the pentose-phosphate pathway in tumor cells. Cells (50,000/well) are grown as described above in 100 μL of Dulbecco's Modified Eagle Medium supplemented with 10% FBS (dialyzed) and 25 mM glucose, and treated with a compound in triplicates in the presence or absence of 10 μM nicotinic acid. After 24 hours of treatment, the growth medium is removed and 200 μL of 80% methanol is added to each well. After incubation at room temperature for 15 minutes, the resulting extracts are transferred to 96-deep-well plates and washed twice with 200 μL of 80% methanol/water. Then, the plates are heat sealed and stored at −80° C., or dried and reconstituted in 100 μL of 25 μM ethylenediaminetetraacetic acid and injected into LC-MS for analysis.
The LC-MS analysis for carbohydrate metabolites is performed as follows. Chromatographic separations are performed with an HPLC system, which is coupled to an AB Sciex triple quadrupole LC-MS mass spectrometer. Analytes with phosphates are analyzed as follows. The samples are dried and reconstituted in ACN/water solutions and are separated on a Phenomenex Luna amino HPLC column (2.1×30 mm 3 μm) under the conditions as described by Yuan et al. (Nature Protocols, 2012, […], 872-881.). The mass spectrometer is operated under negative ESI MRM mode.

Chain of NAMPT (P43490 whole entry): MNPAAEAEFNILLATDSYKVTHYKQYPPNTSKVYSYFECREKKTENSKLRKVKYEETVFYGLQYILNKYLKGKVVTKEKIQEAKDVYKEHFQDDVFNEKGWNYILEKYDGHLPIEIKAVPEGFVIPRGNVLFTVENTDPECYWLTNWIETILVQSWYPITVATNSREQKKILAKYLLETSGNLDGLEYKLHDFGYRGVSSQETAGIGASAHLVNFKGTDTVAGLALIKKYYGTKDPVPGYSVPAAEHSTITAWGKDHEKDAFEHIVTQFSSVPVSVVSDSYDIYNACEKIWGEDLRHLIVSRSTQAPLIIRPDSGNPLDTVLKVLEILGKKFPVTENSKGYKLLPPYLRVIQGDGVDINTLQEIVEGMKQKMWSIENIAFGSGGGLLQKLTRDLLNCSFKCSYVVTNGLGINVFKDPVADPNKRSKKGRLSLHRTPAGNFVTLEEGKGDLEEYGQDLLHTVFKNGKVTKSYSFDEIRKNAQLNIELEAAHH

**Q.** `CC(C)(O)CS(=O)(=O)Nc1ccc2c(c1)CCN(C(=O)COc1cccnc1)C2` [Example 1, 2-Hydroxy-2-methyl-N-[2-[2-(3-pyridyloxy)acetyl]-3,4-dihydro-1H-isoquinolin-6-yl]propane-1-sulfonamide] was tested. Which pIC50 (NAMPT) did it give?
**A.** 8.51

**Q.** And the NAD formation (A2780 Cancer Cells; A2780 cancer cells, in words)?
**A.** dose-dependent inhibition

**Q.** What about the “glycolytic intermediates (HP, FBP, and DHAP/G3P) before and at the G3P dehydrogenase step” value (A2780 Cancer Cells; A2780 cancer cells, in words) of the same compound?
**A.** dose-dependent increase

**Q.** What about the “intermediates (PEP, and PG) after the G3P dehydrogenase step” value (A2780 Cancer Cells; A2780 cancer cells, in words) of the same compound?
**A.** dose-dependent decrease

**Q.** And the “key intermediates of the pentose phosphate pathway including SP” value (A2780 Cancer Cells; A2780 cancer cells, in words)?
**A.** increased

**Q.** And the “Metabolite Levels (μM) DHAP” value (A2780 Cancer Cells; compound 0.000508 μM)?
**A.** 0.6 µM

**Q.** And the “Metabolite Levels (μM) FBP” value (A2780 Cancer Cells; compound 0.000508 μM)?
**A.** 2.5 µM

**Q.** What about the “Metabolite Levels (μM) FP” value (A2780 Cancer Cells; compound 0.000508 μM) of the same compound?
**A.** 1.9 µM

**Q.** And the “Metabolite Levels (μM) NAD” value (A2780 Cancer Cells; compound 0.000508 μM)?
**A.** 0.331 µM

**Q.** And the “Metabolite Levels (μM) SP” value (A2780 Cancer Cells; compound 0.000508 μM)?
**A.** 0.3 µM

**Q.** And the “Metabolite Levels (μM) DHAP” value (A2780 Cancer Cells; compound 0.00152 μM)?
**A.** 0.6 µM

**Q.** What about the “Metabolite Levels (μM) FBP” value (A2780 Cancer Cells; compound 0.00152 μM) of the same compound?
**A.** 3.0 µM

**Q.** And the “Metabolite Levels (μM) FP” value (A2780 Cancer Cells; compound 0.00152 μM)?
**A.** 2.1 µM

**Q.** What about the “Metabolite Levels (μM) NAD” value (A2780 Cancer Cells; compound 0.00152 μM) of the same compound?
**A.** 0.244 µM

**Q.** What about the “Metabolite Levels (μM) SP” value (A2780 Cancer Cells; compound 0.00152 μM) of the same compound?
**A.** 0.3 µM

**Q.** And the “Metabolite Levels (μM) DHAP” value (A2780 Cancer Cells; compound 0.00457 μM)?
**A.** 0.6 µM

**Q.** And the “Metabolite Levels (μM) FBP” value (A2780 Cancer Cells; compound 0.00457 μM)?
**A.** 4.1 µM

**Q.** And the “Metabolite Levels (μM) FP” value (A2780 Cancer Cells; compound 0.00457 μM)?
**A.** 2.4 µM

**Q.** And the “Metabolite Levels (μM) NAD” value (A2780 Cancer Cells; compound 0.00457 μM)?
**A.** 0.089 µM

**Q.** What about the “Metabolite Levels (μM) SP” value (A2780 Cancer Cells; compound 0.00457 μM) of the same compound?
**A.** 0.4 µM

**Q.** What about the “Metabolite Levels (μM) DHAP” value (A2780 Cancer Cells; compound 0.0137 μM) of the same compound?
**A.** 1.0 µM

**Q.** And the “Metabolite Levels (μM) FBP” value (A2780 Cancer Cells; compound 0.0137 μM)?
**A.** 7.2 µM

**Q.** And the “Metabolite Levels (μM) FP” value (A2780 Cancer Cells; compound 0.0137 μM)?
**A.** 3.0 µM

**Q.** What about the “Metabolite Levels (μM) NAD” value (A2780 Cancer Cells; compound 0.0137 μM) of the same compound?
**A.** 0.027 µM

**Q.** And the “Metabolite Levels (μM) SP” value (A2780 Cancer Cells; compound 0.0137 μM)?
**A.** 0.5 µM

**Q.** What about the “Metabolite Levels (μM) DHAP” value (A2780 Cancer Cells; compound 0.0412 μM) of the same compound?
**A.** 2.0 µM

**Q.** What about the “Metabolite Levels (μM) FBP” value (A2780 Cancer Cells; compound 0.0412 μM) of the same compound?
**A.** 19.3 µM

**Q.** And the “Metabolite Levels (μM) FP” value (A2780 Cancer Cells; compound 0.0412 μM)?
**A.** 7.6 µM

**Q.** What about the “Metabolite Levels (μM) NAD” value (A2780 Cancer Cells; compound 0.0412 μM) of the same compound?
**A.** 0.014 µM

**Q.** And the “Metabolite Levels (μM) SP” value (A2780 Cancer Cells; compound 0.0412 μM)?
**A.** 1.3 µM

**Q.** What about the “Metabolite Levels (μM) DHAP” value (A2780 Cancer Cells; compound 0.123 μM) of the same compound?
**A.** 3.8 µM

**Q.** What about the “Metabolite Levels (μM) FBP” value (A2780 Cancer Cells; compound 0.123 μM) of the same compound?
**A.** 34.3 µM

**Q.** What about the “Metabolite Levels (μM) FP” value (A2780 Cancer Cells; compound 0.123 μM) of the same compound?
**A.** 15.1 µM

**Q.** What about the “Metabolite Levels (μM) NAD” value (A2780 Cancer Cells; compound 0.123 μM) of the same compound?
**A.** 0.008 µM

**Q.** What about the “Metabolite Levels (μM) SP” value (A2780 Cancer Cells; compound 0.123 μM) of the same compound?
**A.** 2.6 µM

**Q.** What about the “Metabolite Levels (μM) DHAP” value (A2780 Cancer Cells; compound 0.37 μM) of the same compound?
**A.** 5.0 µM

**Q.** What about the “Metabolite Levels (μM) FBP” value (A2780 Cancer Cells; compound 0.37 μM) of the same compound?
**A.** 40.9 µM

**Q.** And the “Metabolite Levels (μM) FP” value (A2780 Cancer Cells; compound 0.37 μM)?
**A.** 17.2 µM

**Q.** And the “Metabolite Levels (μM) NAD” value (A2780 Cancer Cells; compound 0.37 μM)?
**A.** 0.010 µM

**Q.** And the “Metabolite Levels (μM) SP” value (A2780 Cancer Cells; compound 0.37 μM)?
**A.** 3.2 µM

**Q.** What about the “Metabolite Levels (μM) DHAP” value (A2780 Cancer Cells; compound 1.111 μM) of the same compound?
**A.** 5.4 µM

**Q.** What about the “Metabolite Levels (μM) FBP” value (A2780 Cancer Cells; compound 1.111 μM) of the same compound?
**A.** 38.6 µM

**Q.** What about the “Metabolite Levels (μM) FP” value (A2780 Cancer Cells; compound 1.111 μM) of the same compound?
**A.** 18.0 µM

**Q.** And the “Metabolite Levels (μM) NAD” value (A2780 Cancer Cells; compound 1.111 μM)?
**A.** 0.008 µM

**Q.** And the “Metabolite Levels (μM) SP” value (A2780 Cancer Cells; compound 1.111 μM)?
**A.** 3.3 µM

**Q.** What about the “Metabolite Levels (μM) DHAP” value (A2780 Cancer Cells; compound 3.333 μM) of the same compound?
**A.** 5.2 µM

**Q.** And the “Metabolite Levels (μM) FBP” value (A2780 Cancer Cells; compound 3.333 μM)?
**A.** 43.0 µM

**Q.** What about the “Metabolite Levels (μM) FP” value (A2780 Cancer Cells; compound 3.333 μM) of the same compound?
**A.** 18.8 µM

**Q.** And the “Metabolite Levels (μM) NAD” value (A2780 Cancer Cells; compound 3.333 μM)?
**A.** 0.007 µM

**Q.** What about the “Metabolite Levels (μM) SP” value (A2780 Cancer Cells; compound 3.333 μM) of the same compound?
**A.** 3.4 µM

**Q.** What about the “Metabolite Levels (μM) DHAP” value (A2780 Cancer Cells; compound 10 μM) of the same compound?
**A.** 5.5 µM

**Q.** What about the “Metabolite Levels (μM) FBP” value (A2780 Cancer Cells; compound 10 μM) of the same compound?
**A.** 39.7 µM

**Q.** And the “Metabolite Levels (μM) FP” value (A2780 Cancer Cells; compound 10 μM)?
**A.** 17.1 µM

**Q.** And the “Metabolite Levels (μM) NAD” value (A2780 Cancer Cells; compound 10 μM)?
**A.** 0.008 µM

**Q.** What about the “Metabolite Levels (μM) SP” value (A2780 Cancer Cells; compound 10 μM) of the same compound?
**A.** 2.8 µM
